In patent US9351489B2 (priority 2010, dated 2016):

Assays:
[1] = logP by HPLC on reversed phase columns (EEC directive 79/831 Annex V.A8); type: physicochemical; conditions: for chromatographic logP: reversed phase HPLC columns
Method: Measurement of logP values was performed according EEC directive 79/831 Annex V.A8 by HPLC (High Performance Liquid Chromatography) on reversed phase columns with the following methods:
^[a] measurement of LC-MS was done at pH 2.7 with 0.1% formic acid in water and with acetonitrile (contains 0.1% formic acid) as eluent with a linear gradient from 10% acetonitrile to 95% acetonitrile. […]

Phytophthora infestans = type: in vivo; conditions: tomato plants, preventive spray, 500 ppm of active ingredient, evaluated 7 days after inoculation; 0% = untreated control, 100% = no disease
Plasmopara viticola = assay: Plasmopara test (grapevines)/preventive; type: in vivo; conditions: preventive spray, 100 ppm of active ingredient, evaluated 6 days after inoculation, 0% = untreated control, 100% = no disease
Method: Plasmopara Test (Grapevines)/Preventive • Solvent: 24.5 parts by weight of acetone • 24.5 parts by weight of dimethylacetamide • Emulsifier: 1 part by weight of alkylaryl polyglycol ether
To produce a suitable preparation of active compound, 1 part by weight of active compound is mixed with the stated amounts of solvent and emulsifier, and the concentrate is diluted with water to the desired concentration. To test for preventive activity, young plants are sprayed with the preparation of active compound at the stated rate of application. After the spray coating has dried on, the plants are inoculated with an aqueous spore suspension of Plasmopara viticola and then remain for 1 day in an incubation cabinet at approximately 20° C. and a relative atmospheric humidity of 100%. The plant is subsequently placed for 4 days in a greenhouse at approximately 21° C. and a relative atmospheric humidity of approximately 90%. The plants are then misted and placed for 1 day in an incubation cabinet. The test is evaluated 6 days after the inoculation. 0% means an efficacy which corresponds to that of the untreated control, while an efficacy of 100% means that no disease is observed.

[2] = method [a]: LC-MS at pH 2.7, 0.1% formic acid in water / acetonitrile, gradient 10% to 95% acetonitrile
[3] = pH 2.7, value in preparation example text, method not given
[4] = pH 2.7, method [a]: LC-MS at pH 2.7, 0.1% formic acid in water / acetonitrile, gradient 10% to 95% acetonitrile

| Compound | LogP [1, 2] | also measured |
| --- | --- | --- |
| COCC(=O)C(C#N)=C(NC(C)C(C)C)c1ccccc1Cl (stereo not shown) [Example 23] | 3.21^[a] |  |
| CCC(=O)C(C#N)=C(NC(C)C(C)C)c1ccccc1Br (stereo not shown) [Example 9] | 4.04^[a] |  |
| N#CC=C(Cl)c1ccccc1Cl [3-chloro-3-(2-chlorophenyl)acrylonitrile] |  | chromatographic logP [1, 3]: 3.02; LogP ([1]; value in preparation example text, method not given): 3.23 |
| CC(C)C(C)NC(=C(C#N)C(=O)CCl)c1ccccc1Cl (stereo not shown) [Example 18] | 3.78^[a] |  |
| CC(NC(=C(C#N)C(=O)Cc1ccccc1)c1ccccc1Br)C1CC1 (stereo not shown) [Example 25] | 4.20^[a] |  |
| CC(NC(=C(C#N)C(=O)CCl)c1ccccc1Br)C1CC1 (stereo not shown) [Example 7] | 3.50^[a] |  |
| CC(C)C(C)NC(=C(C#N)C(=O)C1CCCCO1)c1ccccc1Br (mixture of isomers) [Example 26] | 3.80^[a] |  |
| CC(NC(=C(C#N)C(=O)C1CC1)c1ccccc1Br)C1CC1 (stereo not shown) [Example 20] | 3.90^[a] |  |
| CC(C)C(C)NC(=CC#N)c1ccccc1Cl (stereo not shown) [3-(2-chlorophenyl)-3-[(3-methylbutan-2-yl)amino]acrylonitrile] |  | chromatographic logP [1, 3]: 3.27 |
| CCCCC(=O)C(C#N)=C(NC(C)C(C)C)c1ccccc1Cl (stereo not shown) [Example 14] | 4.81^[a] |  |
| COCCC(=O)C(C#N)=C(NC(C)C1CC1)c1ccccc1Br (stereo not shown) [Example 3] | 3.20^[a] |  |
| CCCC(=NOC)C(C#N)=C(NC(C)C(C)C)c1ccccc1Cl (stereo not shown) [Example 35, 2-{(2-chlorophenyl)[(3-methylbutan-2-yl)amino]methylene}-3-(methoxyimino)hexanenitrile] |  | chromatographic logP [1, 4]: 5.34; chromatographic logP [1, 3]: 5.34 |
| CC(NC(=C(C#N)C(=O)CC1CC1)c1ccccc1Br)C1CC1 (stereo not shown) [Example 24] | 4.06^[a] | Efficacy in % (Phytophthora infestans): 85% |
| CNCC(=O)C(C#N)=C(NC(C)C(C)C)c1ccccc1Cl (stereo not shown) [Example 21] | 1.89^[a] |  |
| COCC(=O)C(C#N)=C(NC(C)C1CC1)c1ccccc1Br (stereo not shown) [Example 5] | 3.00^[a] | Efficacy in % (Phytophthora infestans): 93% |
| CC(C)C(C)NC(=C(C#N)C(=O)CC1CC1)c1ccccc1Cl (stereo not shown) [Example 2] | 4.27^[a] |  |
| CC(NC(=C(C#N)C(=O)c1ccco1)c1ccccc1Br)C1CC1 (stereo not shown) [Example 10] | 3.50^[a] |  |
| CC(C)C(C)NC(=C(C#N)C(=O)C1CC1)c1ccccc1Br (stereo not shown) [Example 8] | 4.21^[a] |  |
| CC(C)C(C)NC(=C(C#N)C(=O)C1CCC1)c1ccccc1Br (stereo not shown) [Example 22] | 4.64^[a] |  |

| Compound | LogP [1, 2] | also measured |
| --- | --- | --- |
| CCCC(=O)C(C#N)=C(NC(C)C(C)C)c1ccccc1Br (stereo not shown) [Example 17] | 4.40^[a] | Efficacy in % (Phytophthora infestans): 100%; Efficacy in % (Plasmopara viticola): 93% |
| COCCC(=O)C(C#N)=C(NC(C)C(C)C)c1ccccc1Cl (stereo not shown) [Example 27] | 3.55^[a] |  |
| CC(C)C(C)NC(=C(C#N)C(=O)CC1CC1)c1ccccc1Br (stereo not shown) [Example 16] | 4.34^[a] | Efficacy in % (Phytophthora infestans): 95% |
| CC(NC(=C(C#N)C(=O)C1CCOC1)c1ccccc1Br)C1CC1 (mixture of isomers) [Example 30] | 3.25^[a] |  |
| COCC(=O)C(C#N)=C(NC(C)C(C)C)c1ccccc1Br (stereo not shown) [Example 19] | 3.27^[a] | Efficacy in % (Phytophthora infestans): 95%; Efficacy in % (Plasmopara viticola): 74% |
| CC(NC(=C(C#N)C(=O)C1CCCC1)c1ccccc1Br)C1CC1 (stereo not shown) [Example 29] | 4.60^[a] |  |
| CC(C)C(C)NC(=C(C#N)C(=O)C1CC1)c1ccccc1Cl (stereo not shown) [Example 31] | 4.18^[a] |  |
| CC(C)C(C)NC(=C(C#N)C(=O)C1CCCC1)c1ccccc1Br (stereo not shown) [Example 4] | 5.05^[a] |  |
| C[C@H](NC(=C(C#N)C(=O)C1CCCCO1)c1ccccc1Br)C1CC1 (stereo partly shown) [Example 32] | 3.50^[a] |  |
| CC(C)C(C)NC(=C(C#N)C(=O)c1ccco1)c1ccccc1Cl (stereo not shown) [Example 6] | 3.87^[a] |  |
| CC(NC(=C(C#N)C(=O)C1CCC1)c1ccccc1Br)C1CC1 (stereo not shown) [Example 11] | 4.20^[a] |  |
| CC(C)CC(=O)C(C#N)=C(N[C@@H](C)C(C)C)c1ccccc1Cl [Example 33] | 4.73^[a] |  |
| CCCC(=O)C(C#N)=C(N[C@@H](C)C1CC1)c1ccccc1Br [Example 34] | 4.10^[a] | Efficacy in % (Phytophthora infestans): 93% |
| CCCC(=NC#N)C(C#N)=C(N[C@@H](C)C(C)C)c1ccccc1Cl [Example 36] | 3.85^[a] |  |
| CCC(=O)C(C#N)=C(NC(C)C1CC1)c1ccccc1Br (stereo not shown) [Example 28] | 3.60^[a] |  |
| CCCC(=O)C(C#N)=C(NC(C)C(C)C)c1ccccc1Cl (stereo not shown) [Example 13, 2-{(2-chlorophenyl)[(3-methylbutan-2-yl)amino]methylene}-3-oxohexanenitrile] |  | chromatographic logP [1, 4]: 4.44; chromatographic logP [1, 3]: 4.44 |
| CCCCC(=O)C(C#N)=C(NC(C)C1CC1)c1ccccc1Br (stereo not shown) [Example 15] | 4.40^[a] |  |
| CCCCC(=O)C(C#N)=C(NC(C)C(C)C)c1ccccc1Br (stereo not shown) [Example 12] | 4.85^[a] |  |
| CC(C)C(C)NC(=C(C#N)C(=O)C1CCOC1)c1ccccc1Br (mixture of isomers) [Example 1] | 3.60^[a] |  |
